Values after ≈ are worked out from the molar mass of the structure shown.
Columns and labels:
[1] = AUC (0 to t) in Sprague-Dawley rat plasma at 2 mg/kg, IG by LC-MS/MS analysis; format: ADME, organism-based; design: dose 2 mg/kg; conditions: Sprague-Dawley, plasma, po
[2] = molecular target: RAF proto-oncogene serine/threonine-protein kinase (Homo sapiens, UniProt P04049); assay: Inhibition of human recombinant cRAF measured after 60 mins by TR-FRET assay
[3] = Cmax in Sprague-Dawley rat plasma at 2 mg/kg, IG by LC-MS/MS analysis; format: ADME, organism-based; design: route […], dose 2 mg/kg; conditions: po
NCI-H358 = assay: Cytotoxicity against human NCI-H358 cells assessed as inhibition of growth measured after 72 hrs by CellTiter-Glo luciferase assay; format: functional
[4] = Solubility of the compound at pH 7.4; conditions: buffer
[5] = AUC (0 to t) in Sprague-Dawley rat plasma at 1 mg/kg, iv by LC-MS/MS analysis; format: ADME, organism-based; design: dose 1 mg/kg
[6] = Oral bioavailability in Sprague-Dawley rat by LC-MS/MS analysis; format: ADME, organism-based; conditions: Sprague-Dawley, in vivo
[7] = Clearance in Sprague-Dawley rat plasma at 1 mg/kg, iv by LC-MS/MS analysis; format: ADME, organism-based
[8] = MRT (0 to infinity) in Sprague-Dawley rat plasma at 1 mg/kg, iv by LC-MS/MS analysis; format: ADME, organism-based; conditions: in vivo
[9] = Half life in Sprague-Dawley rat plasma at 1 mg/kg, iv by LC-MS/MS analysis; format: ADME, organism-based; conditions: for t1/2: in vivo, 1 mg/kg; for half-life: Sprague-Dawley, plasma
[10] = Metabolic stability in human liver microsomes assessed as half life; format: ADME, Microsome
Calu-6 = assay: Antitumor activity against human Calu-6 cells xenografted in nude mouse assessed as tumor growth inhibition at 30 mg/kg,IT QD for 12 days relative to control; format: functional; conditions: Calu-6, 288 h, time 12 day, read-out: TGI

Sequence of RAF proto-oncogene serine/threonine-protein kinase (P04049 whole entry): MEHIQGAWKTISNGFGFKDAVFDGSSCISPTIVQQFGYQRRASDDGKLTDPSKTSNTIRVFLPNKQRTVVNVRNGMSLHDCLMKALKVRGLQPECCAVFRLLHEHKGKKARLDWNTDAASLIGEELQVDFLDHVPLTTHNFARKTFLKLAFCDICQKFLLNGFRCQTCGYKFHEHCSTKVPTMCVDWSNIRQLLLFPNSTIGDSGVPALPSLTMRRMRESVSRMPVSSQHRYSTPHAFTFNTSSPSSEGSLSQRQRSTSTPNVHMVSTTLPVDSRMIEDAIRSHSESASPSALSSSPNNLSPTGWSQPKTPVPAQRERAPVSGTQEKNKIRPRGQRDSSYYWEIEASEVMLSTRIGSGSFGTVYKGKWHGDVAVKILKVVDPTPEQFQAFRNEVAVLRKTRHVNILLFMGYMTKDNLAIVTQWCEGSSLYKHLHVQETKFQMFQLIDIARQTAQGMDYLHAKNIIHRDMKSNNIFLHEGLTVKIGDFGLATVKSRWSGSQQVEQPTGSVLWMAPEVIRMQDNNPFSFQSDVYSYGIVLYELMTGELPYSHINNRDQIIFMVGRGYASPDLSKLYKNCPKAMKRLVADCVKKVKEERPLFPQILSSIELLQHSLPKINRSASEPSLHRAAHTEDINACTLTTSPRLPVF

Compound	IC50 [2]	solubility [4]	GI50 (NCI-H358)	other results
Cc1ccc(-c2nnc(-c3ccnc(C(F)(F)F)c3)[nH]2)cc1-c1ccc2c(c1)OC1(CCOCC1)CC(=O)N2	48 nM	–	2500 nM	AUC(0-t) [1]: 38.6 ng·h/mL; AUC(0-t) [5]: 999 ng·h/mL; bioavailability [6]: 2.16%; clearance [7]: 17.1 mL/min/kg; MRT [8]: 155 min; t1/2 [9]: 227 min
Cc1ccc(NC(=O)c2cccc(C(F)(F)F)n2)cc1-c1ccc2c(c1)OC1(CCOCC1)CC(=O)N2	19.7 nM	–	6800 nM	–
Cc1ccc(NC(=O)N2CCCC(C(F)(F)F)C2)cc1-c1ccc2c(c1)OC1(CCOCC1)CC(=O)N2 (configuration not stated)	13 nM	–	5500 nM	–
Cc1ccc(NC(=O)c2ccnc(C(F)(F)F)c2)cc1-c1ccc2c(c1)OC1(CCOCC1)CN(CC(C)(C)O)C2=O	34 nM	–	6200 nM	–
Cc1ccc(NC(=O)c2cc(C(F)(F)F)ncn2)cc1-c1ccc2c(c1)OC1(CCOCC1)CC(=O)N2	5.5 nM	0.35 µM (≈ 0.179 µg/mL)	2700 nM	–
Cc1ccc(NC(=O)c2cc(C(F)(F)F)ccn2)cc1-c1ccc2c(c1)OC1(CCOCC1)CC(=O)N2	11.3 nM	1.4 µM (≈ 0.716 µg/mL)	2900 nM	–
Cc1ccc(NC(=O)c2cc(OCCO)nc(OC(F)F)c2)cc1-c1ccc2c(c1)OC1(CCOCC1)CC(=O)N2	9.2 nM	0.41 µM (≈ 0.234 µg/mL)	2000 nM	–
Cc1ccc(NC(=O)c2cc(C(F)(F)F)nn2C)cc1-c1ccc2c(c1)OC1(CCOCC1)CC(=O)N2	28 nM	–	13000 nM	–
Cc1ccc(NC(=O)c2cc(OCCO)nc(C(F)(F)F)c2)cc1-c1ccc2c(c1)OC1(CCOCC1)CC(=O)N2	26 nM	–	4300 nM	–
Cc1ccc(NC(=O)c2ccnc(C(F)(F)F)c2)cc1-c1cc(OCCO)nc(N2CCOCC2)c1 [NAPORAFENIB]	8.6 nM	26 µM (≈ 13.1 µg/mL)	3000 nM	inhibition in vivo at 30 mg/kg (Calu-6): 67%
Cc1ccc(NS(=O)(=O)c2ccnc(C(F)(F)F)c2)cc1-c1ccc2c(c1)OC1(CCOCC1)CC(=O)N2	32 nM	–	> 30000 nM	–
Cc1ccc(NC(=O)c2ccnc(C3CC3)c2)cc1-c1ccc2c(c1)OC1(CCOCC1)CC(=O)N2	7.1 nM	0.61 µM (≈ 0.295 µg/mL)	2500 nM	–
Cc1ccc(NC(=O)c2ccnc(C(F)(F)F)c2)cc1-c1ccc2c(c1)OC1(CCOCC1)CN(CCN(C)C)C2=O	13 nM	–	7600 nM	–
Cc1ccc(NC(=O)c2ccnc(C(F)(F)F)n2)cc1-c1ccc2c(c1)OC1(CCOCC1)CC(=O)N2	334 nM	–	12000 nM	–
Cc1ccc(NC(=O)c2ccnc(C(F)(F)F)c2)cc1-c1ccc2c(c1)OC1(CCOCC1)CCO2	32 nM	–	8500 nM	–
Cc1ccc(NC(=O)c2ccc(C(F)(F)F)s2)cc1-c1ccc2c(c1)OC1(CCOCC1)CC(=O)N2	69 nM	–	3400 nM	–
COc1nnc(C(=O)Nc2ccc(C)c(-c3ccc4c(c3)OC3(CCOCC3)CC(=O)N4)c2)cc1C(F)(F)F	22 nM	3.6 µM (≈ 1.95 µg/mL)	2600 nM	half-life [10]: 57 min
Cc1cc(F)c(NC(=O)Nc2ccnc(C(F)(F)F)c2)cc1-c1ccc2c(c1)OC1(CCOCC1)CC(=O)N2	6.7 nM	–	200 nM	AUC(0-t) [5]: 154 ng·h/mL; clearance [7]: 120 mL/min/kg; MRT [8]: 11.4 min; t1/2 [9]: 22.2 min
Cc1ccc(C(=O)Nc2ccnc(C(F)(F)F)c2)cc1-c1ccc2c(c1)OC1(CCOCC1)CC(=O)N2	21 nM	–	8600 nM	–

The next lines start with results.

IC50 [2]	solubility [4]	Compound	GI50 (NCI-H358)	other results
3.6 nM	10.4 µM (≈ 5.32 µg/mL)	Cc1ccc(NC(=O)c2ccnc(C(F)(F)F)c2)cc1-c1ccc2c(c1)OC1(CCOCC1)CNC2=O	2900 nM	AUC(0-t) [1]: 41.3 ng·h/mL; Cmax [3]: 7.7 ng/mL
2.2 nM	–	Cc1ccc(NC(=O)c2ccnc(C(F)(F)F)c2)nc1-c1ccc2c(c1)OC1(CCOCC1)CC(=O)N2	> 30000 nM	–
2 nM	1.4 µM (≈ 0.717 µg/mL)	Cc1ccc(NC(=O)c2nccc(C(F)(F)F)n2)cc1-c1ccc2c(c1)OC1(CCOCC1)CC(=O)N2	2300 nM	–
3.2 nM	0.44 µM (≈ 0.225 µg/mL)	Cc1ccc(NC(=O)c2cnnc(C(F)(F)F)c2)cc1-c1ccc2c(c1)OC1(CCOCC1)CC(=O)N2	2000 nM	AUC(0-t) [1]: 176 ng·h/mL; bioavailability [6]: 9.2%; clearance [7]: 16.1 mL/min/kg; Cmax [3]: 40 ng/mL; half-life [9]: 90 min
5.4 nM	–	Cc1ccc(NC(=O)c2ccnc(C(F)(F)F)c2)cc1-c1ccc2c(c1)OC1(CCN2)CCOCC1	13000 nM	–
5 nM	–	Cc1ncc(NC(=O)c2ccnc(C(F)(F)F)c2)cc1-c1ccc2c(c1)OC1(CCOCC1)CC(=O)N2	6300 nM	–
3.6 nM	–	COc1ccc(NC(=O)c2ccnc(C(F)(F)F)c2)cc1-c1ccc2c(c1)OC1(CCOCC1)CC(=O)N2	5900 nM	–
3.2 nM	–	Cc1cc(F)c(NC(=O)Cc2ccnc(C(F)(F)F)c2)cc1-c1ccc2c(c1)OC1(CCOCC1)CC(=O)N2	9400 nM	–
2.6 nM	–	Cc1ccc(NC(=O)c2cc(C(F)(F)F)cnn2)cc1-c1ccc2c(c1)OC1(CCOCC1)CC(=O)N2CCO	2600 nM	half-life [10]: 11 min
4.5 nM	–	Cc1ccc(NC(=O)c2ccnc(C(F)(F)F)c2)cc1-c1ccc2c(c1)OC1(CCOCC1)CC(=O)N2C	7100 nM	–
0.83 nM	–	Cc1ccc(NC(=O)c2ccnc(C(F)(F)F)c2)cc1-c1ccc2c(c1)OC1(CCOCC1)CC(=O)N2CCO	4700 nM	–
4.3 nM	–	Cc1ccc(NC(=O)c2ccnc(C(F)(F)F)c2)cc1-c1ccc2c(c1)OC1(CCOCC1)CNC2	15000 nM	–
3.5 nM	–	O=C1CC2(CCOCC2)Oc2cc(-c3cc(NC(=O)c4ccnc(C(F)(F)F)c4)ccc3CO)ccc2N1	21000 nM	–
3.4 nM	–	Cc1ccc(NC(=O)c2cc(OC3CC3)cnn2)cc1-c1ccc2c(c1)OC1(CCOCC1)CC(=O)N2	1900 nM	half-life [10]: 6.8 min
1.3 nM	311 µM (≈ 173 µg/mL)	Cc1ccc(NC(=O)c2ccnc(C(F)(F)F)c2)cc1-c1ccc2c(c1)OC1(CCOCC1)CN(CCO)C2=O	3200 nM	AUC(0-t) [1]: 29 ng·h/mL; bioavailability [6]: 3.47%; clearance [7]: 40.4 mL/min/kg; Cmax [3]: 5.9 ng/mL
1.8 nM	–	Cc1cnc(NC(=O)c2ccnc(C(F)(F)F)c2)cc1-c1ccc2c(c1)OC1(CCOCC1)CC(=O)N2	3800 nM	–
1.3 nM	8.5 µM (≈ 4.47 µg/mL)	Cc1ccc(NC(=O)c2ccnc(C(F)(F)F)c2)cc1-c1ccc2c(c1)OC1(CCOCC1)CN(C)C2=O	2900 nM	–
0.8 nM	7 µM (≈ 3.46 µg/mL)	Cc1ccc(NC(=O)c2cc(C(F)F)cnn2)cc1-c1ccc2c(c1)OC1(CCOCC1)CC(=O)N2	3900 nM	–
5.4 nM	0.06 µM (≈ 0.0307 µg/mL)	Cc1ccc(NC(=O)c2cncc(C(F)(F)F)c2)cc1-c1ccc2c(c1)OC1(CCOCC1)CC(=O)N2	1600 nM	–
4.1 nM	0.16 µM (≈ 0.0815 µg/mL)	Cc1ccc(NC(=O)c2ccnc(OC(F)F)c2)cc1-c1ccc2c(c1)OC1(CCOCC1)CC(=O)N2	900 nM	AUC(0-t) [1]: 455 ng·h/mL; bioavailability [6]: 22%; clearance [7]: 16.7 mL/min/kg; Cmax [3]: 107 ng/mL; half-life [9]: 90 min
3.3 nM	–	Cc1ccc(NC(=O)c2cncc(C(F)(F)F)n2)cc1-c1ccc2c(c1)OC1(CCOCC1)CC(=O)N2	5200 nM	–
4.7 nM	–	Cc1cc(F)c(NC(=O)N(C)c2ccnc(C(F)(F)F)c2)cc1-c1ccc2c(c1)OC1(CCOCC1)CC(=O)N2	9400 nM	–
3.3 nM	–	Cc1ccc(NC(=O)C2CCNC(C(F)(F)F)C2)cc1-c1ccc2c(c1)OC1(CCOCC1)CC(=O)N2 (configuration not stated)	> 30000 nM	–
3.9 nM	2.3 µM (≈ 1.21 µg/mL)	Cc1ccc(NC(=O)c2cc(C(F)(F)F)cnn2)cc1-c1ccc2c(c1)OC1(CCOCC1)CC(=O)N2C	1300 nM	half-life [10]: 4.6 min
